Measurements from patent US7862798B2, “Vitamin-targeted imaging agents” (Endocyte, Inc., priority 2002, dated 2011).
Values joined by “and” are separate entries in the source; they are usually repeats but may differ in a detail not shown here. Equal values may be shown once.

Tests used:
FR-positive KB cells = assay: Time-dependent cell uptake; format: cell-based, human; set-up: time to half-maximal saturation point: dose or concentration left out as unconfirmed
Procedure: KB cells were seeded in 12-well Falcon plates and allowed to form sub-confluent monolayers overnight. Following one rinse with 1 mL of fresh FFRPMI/HIFCS, each well received 1 mL of FFRPMI/HIFCS containing 10 nM ^99mTc-EC20. Cells were incubated for predetermined times at 37° C. and then rinsed four times with 1 mL of ice-cold PBS, pH 7.4. The cell monolayers were dissolved in 0.5 mL of PBS, pH 7.4 containing 1% sodium dodecyl sulfate for 15 min at room temperature and then counted for radioactivity using a Packard gamma counter. The protein in each sample was quantitated using a BioRad DC Protein Assay kit, and cellular protein values were converted to cell number using the conversion factor of 2.23×10^−7 mg protein per cell. Final tabulated values were expressed in terms of molecules of EC20 per cell.
The kinetics of ^99mTc-EC20 uptake into FR-positive KB cells was quantitatively measured using this protocol.

[1] = Urinary excretion and metabolism (HPLC speciation of urine); format: in vivo, Balb/c mice
Procedure: The urinary HPLC speciation profile of ^99mTc-EC20 was obtained using Balb/c mice. Mice (˜20 g each) were injected with 1 mCi (6.7 nmol) of ^99mTc-EC20 via a lateral tail vein. Following a 1, 4, or 6 hour time period, groups of two mice were euthanized by CO2 asphyxiation and urine was collected. After filtration through a GV13 Millex filter, the radiochemical speciation was assessed using an HPLC system equipped with a Nova-Pak C18 3.9×150 mm column and a radiochemical detector. The system was isocratically eluted with 20% methanol containing 0.1% TFA at a flow rate of 1 mL/minute.

[2] = test system: FR-positive M109 and FR-negative 4T1 tumors; assay: Tissue distribution, M109 and 4T1 tumor models (Example 15); format: in vivo, Balb/c mice; details: four hours post i.v. injection
Procedure: The protocols used in this example are similar to those described in Example 11.
Syngeneic, FR-positive M109 tumor cells (2×10^6 Po per animal) or FR-negative 4T1 cells (5×10^5 Po per animal) were inoculated subcutaneously in 100 μl of folate-free RPMI-1640 containing 1% syngeneic mouse serum.
Sixteen days after tumor cell inoculation, the animals were injected intravenously with 500 or 1800 nmoles/kg of EC20 for M109 tumor-bearing animals and 500 nmoles/kg of EC20 for 4T1 tumor-bearing animals (3 mice per dose group). All injections were in 100 μl volumes. […] Selected tissues (heart, lungs, liver, spleen, kidney, intestines, stomach, muscle, and tumor) were removed, weighed, and counted in an automatic gamma counter to determine ^99mTc distribution. Uptake of the radiopharmaceutical in terms of percentage injected dose of wet weight tissue (% ID/g) was calculated by reference to standards prepared from dilutions of the injected preparation.

[3] = target: T1, folate receptor (FR) on KB cells (Homo sapiens, UniProt P15328); assay: Concentration-dependent cell uptake (Scatchard analysis); format: binding; details: 2 hours at 37° C.
T1 construct: FR-positive KB cells were gently trypsinized; endogenous in cells; host or cells: KB cells
Procedure: KB cells were seeded in 12-well Falcon plates and allowed to form sub-confluent monolayers overnight. Following one rinse with 1 mL of fresh FERPMI/HIFCS, each well received 1 mL of FFRPMI/HIFCS containing increasing concentrations of ^99mTc-EC20. Cells were incubated for 2 hours at 37° C. and then rinsed four times with 1 mL of ice-cold PBS, pH 7.4. The monolayers were dissolved in 0.5 mL of PBS, pH 7.4 containing 1% sodium dodecyl sulfate for 15 min at room temperature and then counted for radioactivity using a Packard gamma counter. Protein content was determined as described above, and final tabulated values were expressed in terms of molecules of EC20 per cell.
The particular KB cells used were determined to bind a maximum of four million molecules of the folate radiopharmaceutical per cell.
This HPLC-purified radiolabeled material (Peak B material) was collected and then added to cultured KB cells.

Blood clearance = format: in vivo, Balb/c mice
Procedure: Animals used for this study were maintained on a folate-free diet (Harlan #TD-90261) for approximately three weeks prior to dose administration. […] Furthermore, previous studies have shown that mice placed on a folate-free diet for 3 weeks had maintained a safe serum folate level of 25±7 nM, which is slightly higher than the 9-14 nM concentration measurable in human serum.
The ^99mTc-EC20 solution was prepared on the day of use and had initially contained 100 μg of EC20 per milliliter. The solution was further diluted with sterile saline to prepare working stock solutions. The radiochemical purity of the product was estimated to be ˜94% by TLC. Each animal received a dose of 50 μg/kg EC20 (67 nmol/kg) in approximately 0.1 mL volume i.v. via the tail vein during brief diethyl ether anesthesia. At the designated times (see FIG. 8) post-injection, each animal was euthanized by CO2 asphyxiation, and blood was immediately collected by cardiac puncture.

[4] = Serum protein binding (ultrafiltration), rat serum; format: in vitro ADME; details: room temperature, ultrafiltration 30,000 NMWL
Procedure: Fresh rat serum, and commercial male human serum (type AB donors, Sigma Chemical Co.) were used to evaluate in vitro binding of ^99mTc˜EC20 to serum proteins. One minute after ^99mTc-EC20 was mixed with 1 mL of serum at room temperature, 0.3 mL of the serum solution was transferred to a clean Amicon Centrifree® ultrafiltration device (30,000 NMWL) in triplicate. Within one minute of loading the centrifuge with the serum solution, the device was spun at 1000×g for 20 minutes at 20° C. 50 μL samples of the original solution, and of the filtrate from each device, was transferred to a clean tube and counted in an automatic gamma counter. A control solution of ^99mTc˜EC20 mixed with 1 mL of normal saline was ultrafiltered in an identical fashion. The percentage of free ^99mTc was calculated for each of the three samples.

T1 sequence (P15328 25-234): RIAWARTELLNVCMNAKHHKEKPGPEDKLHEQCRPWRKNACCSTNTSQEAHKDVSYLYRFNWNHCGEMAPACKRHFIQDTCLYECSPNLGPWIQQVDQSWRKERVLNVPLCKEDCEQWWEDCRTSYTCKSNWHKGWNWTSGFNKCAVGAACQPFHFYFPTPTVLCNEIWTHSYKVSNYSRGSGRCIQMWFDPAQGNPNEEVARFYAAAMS

With `[NH-][C@@H](CNC(=O)CC[C@@H](NC(=O)c1ccc(NCc2cnc3nc(N)[nH]c(=O)c3n2)cc1)C(=O)O)C(=O)[N-][C@@H](CC(=O)O)C(=O)[N-][C@@H](C[S-])C(=O)O.[O]=[Tc+4]` [^99mTc-EC20] the “time to half-maximal cell association” value (FR-positive KB cells; 10 nM, 37° C.) was 9 min, the “molecules of EC20 cell-associated at steady state” value (FR-positive KB cells; 10 nM, 37° C., KB cells) was “approximately 3.2 million” and the “time to steady-state uptake” value (FR-positive KB cells; 10 nM, 37° C., KB cells) was “within two hours”. The “time to half-maximal saturation point” value (FR-positive KB cells; 10-fold higher concentration) was 37 s, the “form excreted into the urine” value ([1]; Balb/c mice, i.v.) was “predominately excreted into the urine in an unmodified form” and the “proportion of parent drug among radioactive species recovered in urine” value ([1]; throughout four hours post-injection) was “approximately 90%”. For the same compound, the “Area Percent, Sum C and D (intact 99mTc-EC20)” value ([1]; urine samples, 1 hr, two mice) was 89.2 Area Percent and 91.1 Area Percent, the “Area Percent, peak A (pertechnetate)” value ([1]; urine samples, 1 hr, two mice) was 8.3 Area Percent and 6.3 Area Percent and the “Area Percent, peak B (unknown)” value ([1]; urine samples, 1 hr, two mice) was 2.5 Area Percent and 2.6 Area Percent. The “Area Percent, peak C (isomer 1)” value ([1]; urine samples, 1 hr, two mice) was 20.4 Area Percent and 18.1 Area Percent, the “Area Percent, peak D (isomer 2)” value ([1]; urine samples, 1 hr, two mice) was 68.8 Area Percent and 73 Area Percent and the “Area Percent, Sum C and D (intact 99mTc-EC20)” value ([1]; urine samples, 4 hr, two mice) was 85.2 Area Percent and 89.8 Area Percent. For the same compound, the “Area Percent, peak A (pertechnetate)” value ([1]; urine samples, 4 hr, two mice) was 9.4 Area Percent and 10.2 Area Percent, the “Area Percent, peak C (isomer 1)” value ([1]; urine samples, 4 hr, two mice) was 7.3 Area Percent and 11.1 Area Percent and the “Area Percent, peak D (isomer 2)” value ([1]; urine samples, 4 hr, two mice) was 77.9 Area Percent and 78.7 Area Percent. The “uptake in FR-negative 4T1 tumors lower than in FR-positive M109 tumors” value [2] was 7.6 fold, the “uptake in normal tissues, except kidney” value [2] was “low” and the “maximum molecules bound per cell” value [3] was “four million”. For the same compound, the Kd ([3]; read-out: KD of binding (Scatchard analysis)) was 3.2 nM, the plasma half life (Blood clearance; 50 μg/kg EC20 i.v., Balb/c mouse) was roughly 4 min and the “injected dose remaining in circulation” value (Blood clearance; after four hours, blood assumed 5.5% of body mass) was “less than 0.2%”. The “associated with the >30 kDa serum protein fraction” value [4] was 69%.
